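Compound exposure: 48 hours, 5 concentrations, 96-well plates. GI50 = concentration required for 50% inhibition of growth.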 Active and inactive are the calls of the source. No stated cut-off is given here; in the data, active = GI50 up to about 1.1 µM and inactive = higher.
Key:
Assay in all cases: NCI anticancer screen, dose series, 48 h
[1] = tested on: DLD-1
[2] = tested on: DMS-114
[3] = tested on: DMS-273
[4] = tested on: HOP-18
[5] = tested on: KM-20L2
[6] = tested on: M19-MEL
[7] = tested on: SNB-78
[8] = tested on: XF498
[9] = tested on: RXF 631

Compound | GI50 [1] | GI50 [2] | GI50 [3] | GI50 [4] | GI50 [5] | GI50 [6] | GI50 [7] | GI50 [8] | GI50 [9]
CCOC(=O)C(c1ccsc1)P(=O)(OCC)OCC (configuration not stated) | 12.8 µM (inactive) | 13.8 µM (inactive) | 13.2 µM (inactive) | 28.3 µM (inactive) | 14.5 µM (inactive) | 11.2 µM (inactive) | 12.6 µM (inactive) | 20.9 µM (inactive) | –
COc1ncnc2c(NC3OC(CO)C(O)C3O)ncnc12 (configuration not stated) | 0.306 µM (active) | 0.213 µM (active) | 0.152 µM (active) | < 0.01 µM (active) | 0.407 µM (active) | – | 0.668 µM (active) | 0.902 µM (active) | 0.3 µM (active)
Clc1ccc(-c2nnc3c4nnc(-c5ccc(Cl)cc5Cl)n4c4ccccc4n23)c(Cl)c1 | > 100 µM (inactive) | > 100 µM (inactive) | > 100 µM (inactive) | – | > 100 µM (inactive) | > 100 µM (inactive) | 34.4 µM (inactive) | > 100 µM (inactive) | –
COC(=O)/C(=N\NC(N)=O)C(C#N)c1ccccc1 (configuration not stated) | > 100 µM (inactive) | > 100 µM (inactive) | – | > 100 µM (inactive) | > 100 µM (inactive) | > 100 µM (inactive) | > 100 µM (inactive) | 75.5 µM (inactive) | –
Cc1c2ccccc2cc2ccc3oc([N+](=O)[O-])cc3c12 | > 100 µM (inactive) | > 100 µM (inactive) | > 100 µM (inactive) | 2 µM (inactive) | > 100 µM (inactive) | > 100 µM (inactive) | > 100 µM (inactive) | > 100 µM (inactive) | –
CC(C)=CCC/C(C)=C/Cc1c(O)c(C)cc2c1[nH]c1cc(O)ccc12 | > 25 µM (inactive) | > 25 µM (inactive) | > 25 µM (inactive) | – | > 25 µM (inactive) | > 25 µM (inactive) | > 25 µM (inactive) | – | –
COc1ccc(/C=C2\N=C(c3ccccc3)OC2=O)c(OCc2ccccc2)c1 | 17.7 µM (inactive) | 31.1 µM (inactive) | 32.3 µM (inactive) | > 100 µM (inactive) | > 100 µM (inactive) | 38.3 µM (inactive) | – | – | –
O/N=C1\CCCCC1C(NO)c1ccccc1 (configuration not stated) | > 100 µM (inactive) | 67 µM (inactive) | > 100 µM (inactive) | > 100 µM (inactive) | > 100 µM (inactive) | > 100 µM (inactive) | > 100 µM (inactive) | – | > 100 µM (inactive)
CN(C)CCCn1cnc2ncccc2c1=O | > 100 µM (inactive) | 48.5 µM (inactive) | > 100 µM (inactive) | – | – | > 100 µM (inactive) | > 100 µM (inactive) | > 100 µM (inactive) | –
CC1(C)CC(=O)C(/C(=N/NC(=S)NN)C(=O)Nc2nc3ccc([N+](=O)[O-])cc3s2)C(=O)C1 | > 100 µM (inactive) | > 100 µM (inactive) | – | 76.7 µM (inactive) | > 100 µM (inactive) | > 100 µM (inactive) | > 100 µM (inactive) | > 100 µM (inactive) | –
CC(Oc1ccc(OCC2CCCCC2)cc1)C(N)=O (configuration not stated) | > 100 µM (inactive) | 73.6 µM (inactive) | > 100 µM (inactive) | > 100 µM (inactive) | – | > 100 µM (inactive) | > 100 µM (inactive) | > 100 µM (inactive) | –
Cc1nc(=O)n2c(C)n[nH]c2c1C(=O)O | > 100 µM (inactive) | > 100 µM (inactive) | – | – | – | > 100 µM (inactive) | > 100 µM (inactive) | > 100 µM (inactive) | –
O=C(C/C(=N\NC(=O)C[n+]1ccccc1)C(=O)Nc1nc2ccc([N+](=O)[O-])cc2s1)CC(c1ccccc1)c1c(O)c2ccccc2oc1=O (configuration not stated) | > 100 µM (inactive) | > 100 µM (inactive) | – | – | > 100 µM (inactive) | > 100 µM (inactive) | – | – | –
Cc1ccc(C(=O)CC2(O)C(=O)Nc3c(C)cc(Cl)cc32)cc1 (configuration not stated) | > 100 µM (inactive) | 52.1 µM (inactive) | > 100 µM (inactive) | > 100 µM (inactive) | > 100 µM (inactive) | – | > 100 µM (inactive) | > 100 µM (inactive) | > 100 µM (inactive)
CCOC(=O)C(Cc1c(C=O)[nH]c2ccccc12)(NC(=O)c1ccccc1)C(=O)OCC | 7.93 µM (inactive) | 19.8 µM (inactive) | – | > 10 µM (inactive) | – | 16 µM (inactive) | – | 16.4 µM (inactive) | –
c1ccc(CSc2nc3ccccc3nc2-c2cccs2)cc1 | > 100 µM (inactive) | > 100 µM (inactive) | > 100 µM (inactive) | > 100 µM (inactive) | – | > 100 µM (inactive) | > 100 µM (inactive) | > 100 µM (inactive) | –
Cc1ccccc1NC(=O)c1cc(-c2ccc([N+](=O)[O-])cc2)nc(S)n1 | > 100 µM (inactive) | > 100 µM (inactive) | > 100 µM (inactive) | > 100 µM (inactive) | > 100 µM (inactive) | – | > 100 µM (inactive) | – | > 100 µM (inactive)
O=C(/C=C/c1ccc(O)c(O)c1)OC1C[C@@](O)(C(=O)O)C[C@@H](O)[C@H]1OC(=O)/C=C/c1ccc(O)c(O)c1 (some centres not stated) | > 100 µM (inactive) | > 100 µM (inactive) | > 100 µM (inactive) | > 100 µM (inactive) | 37.1 µM (inactive) | > 100 µM (inactive) | > 100 µM (inactive) | > 100 µM (inactive) | –
COC(=O)C1=Cc2cc3c(cc2[C@H](c2ccc4c(c2)OCO4)C1C(=O)OC)OCO3 (some centres not stated) | 54.5 µM (inactive) | > 100 µM (inactive) | > 100 µM (inactive) | > 100 µM (inactive) | > 100 µM (inactive) | > 100 µM (inactive) | > 100 µM (inactive) | > 100 µM (inactive) | –
Cc1c[nH]c2c(O)cc3c(c12)[C@H](CCl)CN3C(=O)c1cc2cc(NC(=O)Nc3ccc4[nH]c(C(=O)N5C[C@@H](CCl)c6c5cc(O)c5[nH]cc(C)c65)cc4c3)ccc2[nH]1 [BIZELESIN] | – | < 0.001 µM (active) | – | < 0.001 µM (active) | < 0.001 µM (active) | < 0.001 µM (active) | < 0.001 µM (active) | < 0.001 µM (active) | < 0.001 µM (active)
